From ChEMBL document CHEMBL3861941, “Discovery of 4,6-disubstituted pyrimidines as potent inhibitors of the heat shock factor 1 (HSF1) stress pathway and CDK9” (Medchemcomm, 2016)

Tests used:
[1] = Cytotoxicity against human U2OS cells assessed as growth inhibition after 96 hrs by SRB assay; format: functional, cell-based
CDK9/cyclin T1 = CDK9/cyclin T1 (Homo sapiens, UniProt P50750)
[2] = molecular target: Cyclin-dependent kinase 2/cyclin E1 (Homo sapiens, UniProt P24941); experiment: Inhibition of recombinant full-length human C-terminal His6-tagged CDK2/recombinant full-length human N-terminal GST-tagged cyclin E using fluorescein-QSPKKG-CONH2 as substrate after 60 mins by off-chip mobility shift assay; format: protein-complex assay

CDK9/cyclin T1, sequence (O60563 whole entry): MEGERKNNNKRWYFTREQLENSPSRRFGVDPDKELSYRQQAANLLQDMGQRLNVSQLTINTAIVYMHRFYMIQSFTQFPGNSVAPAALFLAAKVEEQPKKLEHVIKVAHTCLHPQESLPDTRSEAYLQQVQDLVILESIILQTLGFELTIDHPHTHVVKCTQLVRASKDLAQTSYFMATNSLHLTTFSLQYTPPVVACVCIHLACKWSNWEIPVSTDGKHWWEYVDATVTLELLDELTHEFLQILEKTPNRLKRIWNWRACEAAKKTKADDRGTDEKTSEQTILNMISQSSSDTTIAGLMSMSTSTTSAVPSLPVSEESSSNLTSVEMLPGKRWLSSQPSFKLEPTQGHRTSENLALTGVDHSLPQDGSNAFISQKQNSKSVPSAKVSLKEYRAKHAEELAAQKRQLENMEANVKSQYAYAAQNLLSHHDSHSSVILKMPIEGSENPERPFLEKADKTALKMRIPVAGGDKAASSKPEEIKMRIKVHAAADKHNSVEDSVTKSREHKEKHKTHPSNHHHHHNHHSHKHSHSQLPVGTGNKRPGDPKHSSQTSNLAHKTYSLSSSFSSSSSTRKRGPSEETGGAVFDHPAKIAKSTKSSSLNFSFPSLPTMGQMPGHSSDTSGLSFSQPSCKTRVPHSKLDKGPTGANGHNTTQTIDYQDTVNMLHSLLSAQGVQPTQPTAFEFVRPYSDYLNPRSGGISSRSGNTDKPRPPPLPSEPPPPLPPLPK
CDK9/cyclin T1, sequence (P50750 whole entry): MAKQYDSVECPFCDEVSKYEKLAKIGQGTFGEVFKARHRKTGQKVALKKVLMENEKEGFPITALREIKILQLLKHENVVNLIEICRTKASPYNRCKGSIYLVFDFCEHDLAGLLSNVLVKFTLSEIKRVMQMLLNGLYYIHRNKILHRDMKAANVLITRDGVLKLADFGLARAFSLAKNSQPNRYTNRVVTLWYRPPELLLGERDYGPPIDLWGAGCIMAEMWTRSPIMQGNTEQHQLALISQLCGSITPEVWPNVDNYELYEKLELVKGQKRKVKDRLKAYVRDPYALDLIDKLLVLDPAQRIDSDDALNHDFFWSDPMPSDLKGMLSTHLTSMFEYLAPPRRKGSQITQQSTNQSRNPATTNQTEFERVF

IC50 (CDK9/cyclin T1) | IC50 [2] | Structure (SMILES) | IC50 [1]
3 nM |  | c1cnc2ncn(-c3cc(Nc4ccc(OCCN5CCCCC5)cn4)ncn3)c2c1 | 5 nM
 | 65800 nM | Cc1c(Nc2ccc(OCCN(C)C)cn2)ncnc1-n1cnc2ccccc21 | 
